From the supplement of paper PMC10307832

Tests used:
Assay in all cases: relative viability (nuclei count vs DMSO), 5 days (fraction); higher = more cells survive
Tipifarnib + Olaparib = compound: Cn1cncc1[C@@](N)(c1ccc(Cl)cc1)c1ccc2c(c1)c(-c1cccc(Cl)c1)cc(=O)n2C [Tipifarnib] + O=C(c1cc(Cc2n[nH]c(=O)c3ccccc23)ccc1F)N1CCN(C(=O)C2CC2)CC1 [Olaparib] (partner 8 µM)
Method in brief: (§1)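 Relative viability divides the nuclei count in treated wells by that in vehicle wells. Lung cancer cell lines were seeded in 1536-well plates, dosed by pin tool the next day, and fixed and stained after 5 days in one step with final 0.05% Triton X-100, 1% formaldehyde and 1 ug/ml Hoechst. Dosing was a single drug or a fixed anchor-drug dose plus five library-drug doses (not always all listed) in √10 steps, and values are medians of duplicate plates imaged at 4×.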

Tipifarnib + Alpelisib = compound: Cn1cncc1[C@@](N)(c1ccc(Cl)cc1)c1ccc2c(c1)c(-c1cccc(Cl)c1)cc(=O)n2C [Tipifarnib] + Cc1nc(NC(=O)N2CCC[C@H]2C(N)=O)sc1-c1ccnc(C(C)(C)C(F)(F)F)c1 [Alpelisib] (partner 2 µM)
Method in brief: as §1

Tipifarnib + Bortezomib = compound: Cn1cncc1[C@@](N)(c1ccc(Cl)cc1)c1ccc2c(c1)c(-c1cccc(Cl)c1)cc(=O)n2C [Tipifarnib] + CC(C)C[C@H](NC(=O)[C@H](Cc1ccccc1)NC(=O)c1cnccn1)B(O)O [Bortezomib] (partner 0.002 µM)
Method in brief: as §1

Tipifarnib + Pemetrexed = compound: Cn1cncc1[C@@](N)(c1ccc(Cl)cc1)c1ccc2c(c1)c(-c1cccc(Cl)c1)cc(=O)n2C [Tipifarnib] + Nc1nc2[nH]cc(CCc3ccc(C(=O)N[C@@H](CCC(=O)O)C(=O)O)cc3)c2c(=O)[nH]1 [Pemetrexed] (partner 0.2 µM)
Method in brief: as §1

Cell Line | relative viability (Tipifarnib + Olaparib; first compound 0.01 µM) | relative viability (Tipifarnib + Olaparib; first compound 0.03162 µM) | relative viability (Tipifarnib + Olaparib; first compound 0.1 µM) | relative viability (Tipifarnib + Olaparib; first compound 0.3162 µM) | relative viability (Tipifarnib + Olaparib; first compound 1 µM) | relative viability (Tipifarnib + Alpelisib; first compound 0.01 µM) | relative viability (Tipifarnib + Alpelisib; first compound 0.03162 µM) | relative viability (Tipifarnib + Alpelisib; first compound 0.1 µM) | relative viability (Tipifarnib + Alpelisib; first compound 0.3162 µM) | relative viability (Tipifarnib + Alpelisib; first compound 1 µM) | relative viability (Tipifarnib + Bortezomib; first compound 0.01 µM) | relative viability (Tipifarnib + Bortezomib; first compound 0.1 µM) | relative viability (Tipifarnib + Bortezomib; first compound 0.3162 µM) | relative viability (Tipifarnib + Bortezomib; first compound 1 µM) | relative viability (Tipifarnib + Bortezomib; first compound 0.03162 µM) | relative viability (Tipifarnib + Pemetrexed; first compound 0.01 µM) | relative viability (Tipifarnib + Pemetrexed; first compound 0.03162 µM) | relative viability (Tipifarnib + Pemetrexed; first compound 0.1 µM) | relative viability (Tipifarnib + Pemetrexed; first compound 0.3162 µM) | relative viability (Tipifarnib + Pemetrexed; first compound 1 µM)
A549 | 0.265 | 0.276 | 0.245 | 0.219 | 0.109 | 0.759 | 0.649 | 0.398 | 0.346 | 0.283 |  |  |  |  |  |  |  |  |  | 
ABC-1 | 0.7 | 0.776 | 0.819 | 0.986 | 0.912 | 1.01 |  | 0.869 | 0.721 | 0.822 | 0.31 | 0.212 | 0.253 | 0.291 |  |  |  |  |  | 
Calu-6 | 0.532 | 0.498 | 0.514 | 0.502 | 0.466 | 0.831 | 0.667 | 0.609 | 0.412 | 0.505 | 0.928 | 0.634 | 0.529 | 0.544 | 0.662 |  |  |  |  | 
ChaGo-K-1 | 0.455 | 0.406 | 0.459 | 0.419 | 0.373 |  |  |  |  |  | 0.976 | 0.954 | 0.978 | 0.53 | 1 | 0.262 | 0.274 | 0.265 | 0.27 | 0.272
EBC-1 | 0.648 | 0.411 | 0.332 | 0.228 | 0.229 | 0.697 | 0.371 | 0.36 | 0.331 | 0.274 | 0.46 | 0.359 | 0.295 | 0.309 | 0.356 |  |  |  |  | 
IA-LM | 0.494 | 0.504 | 0.485 | 0.256 | 0.404 | 0.362 | 0.289 | 0.309 | 0.213 | 0.214 | 0.354 | 0.28 | 0.292 | 0.265 | 0.407 |  |  |  |  | 
LK-2 | 0.779 | 0.651 | 0.443 | 0.329 | 0.347 | 1.21 | 1.06 | 0.827 | 0.544 | 0.639 |  |  |  |  |  | 0.31 | 0.313 | 0.279 | 0.232 | 0.122
NCI-H358 | 0.607 | 0.578 | 0.542 | 0.48 | 0.34 | 0.918 | 0.748 | 0.8 | 0.504 | 0.431 |  |  |  |  |  | 0.183 | 0.185 | 0.193 | 0.182 | 0.169
NCI-H522 | 0.633 | 0.677 | 0.621 | 0.67 | 0.542 |  |  |  |  |  |  |  |  |  |  | 1.08 | 1.2 | 0.886 | 0.973 | 0.839
NCI-H727 | 0.702 | 0.685 | 0.866 | 0.802 | 0.901 | 0.683 | 0.516 | 0.569 | 0.496 | 0.513 | 0.893 | 0.856 | 0.656 | 0.607 | 0.802 |  |  |  |  | 
NCI-H1299 | 0.984 | 0.932 | 0.973 | 0.791 | 0.783 | 1.04 | 1.04 | 0.971 | 0.973 | 0.941 | 0.988 | 0.929 | 0.847 | 0.816 | 0.954 |  |  |  |  | 
